Assay [1] has as its system HT29 (colorectal adenocarcinoma). Kind of assay: SRB cytotoxicity assay, HT29. It is filed as cell-based. The following applies: 72 h, SRB; for TGI HT29: total growth inhibition; for TGI HT29 / CC50: unit inferred; for GI50 / CC50: Homo sapiens, HT-29; for CC50: read-out: LC50 HT29. The protocol: Human tumor cell lines used in this study were purchased from the ATCC. A-549 (CCL-185), lung carcinoma; HT-29 (HTB-38), colorectal adenocarcinoma; MDA-MB-231 (HTB-26), breast adenocarcinoma; PSN1, pancreas adenocarcinoma.
All cell lines were maintained in DMEM (Dulbecco’s Modified Eagle's Medium) culture medium supplemented with 10% FBS (Fetal Bovine Serum), 100 Units/mL penicillin/streptomycin at 37 °C, 5% CO2 and 95% humidity.
Triplicate cultures were incubated for 72 h in the presence or absence of test compounds in dose–response curves (10 concentrations, typically ranging from 10 to 0.0026 µg/mL). A colorimetric assay using sulforhodamine B (SRB) was adapted for quantitative measurement of cell growth and cytotoxicity. A more detailed information on this assay is provides in the supplementary information. GI50 is the compound concentration that produces 50% inhibition on cell growth as compared to control cells.
In vitro bioassays for the detection of antitumor activity
The aim of this assay is to evaluate the in vitro cytostatic (ability to delay or arrest tumor cell growth) or cytotoxic (ability to kill tumor cells) activity of the samples […]
Name Nº ATCC Species Tissue Characteristics
A549 CCL-185 human lung lung carcinoma (NSCLC)
HT29 HTB-38 human colon colorectal adenocarcinoma
MDA-MB-231 HTB-26 human breast breast adenocarcinoma
PSN1 CRM-CRL-3211 human pancreas pancreas adenocarcinoma […]
A colorimetric assay, using Sulforhodamine B (SRB) reaction has been adapted to provide a quantitative measurement of cell growth and viability (following the technique described by Skehan et al. J. Natl. Cancer Inst. 1990, 82, 1107-1112 […]
This form of assay employs 96-well cell culture microplates following the standards of the American National Standards Institute and the Society for Laboratory […]
used in this study were obtained from the American Type Culture Collection (ATCC) and derive from different types of human cancer.
A549, HT29, MDA-MB-231 and PSN1 cells were maintained in Dulbecco’s
Modified Eagle Medium (DMEM) supplemented with 10% Fetal Bovine Serum (FBS), 2mM L-glutamine, 100 U/mL penicillin, and 100 U/mL streptomycin at 37 °C, 5% CO2 and 98% humidity. For the experiments, cells were harvested from subconfluent cultures using trypsinization and resuspended in fresh medium before counting and […]
A549, HT29, MDA-MB-231 and PSN1 cells were seeded in 96 well microtiter plates, at 5000 cells per well in aliquots of 150 µL, and allowed to attach to the plate surface for 18 hours (overnight) in drug free medium. After that, one control (untreated) plate of each cell line was fixed (as described below) and used for time zero reference value. Culture plates were then treated with test compounds (50 µL aliquots of 4X stock […]
solutions in complete culture medium plus 4% DMSO) using ten 2/5 serial dilutions (concentrations ranging from 10 to 0.003 µg/mL) and triplicate cultures (1% final concentration in DMSO). After 72 hours treatment, the antitumor effect was measured by using the SRB methodology: Briefly, cells were washed twice with PBS, fixed for 15 min in 1% glutaraldehyde solution at room temperature, rinsed twice in PBS, and stained in 0.4% SRB solution for 30 min at room temperature. Cells were then rinsed several times with 1% acetic acid solution and air-dried at room temperature. SRB was then extracted in 10 mM trizma base solution and the absorbance measured in an automated spectrophotometric plate reader at 490 nm.
Effects on cell growth and survival were estimated by applying the NCI algorithm (Boyd MR and Paull KD. Drug Dev. Res. 1995, 34, 91-109, DOI:10.1002/ddr.430340203). The values obtained in triplicate cultures were fitted by nonlinear regression to a four-parameters logistic curve by nonlinear regression analysis. . Using the absorbance measurements [time zero, (Tz), control growth, (C), and test growth in the presence of drug at the ten concentration levels (Ti)], the […]

The target in another assay is T1, hTRPV1 channels (Homo sapiens, UniProt Q8NER1).
T1 construct: expressed in transfected cells; host or cells: HEK (stably transfected)
T1 sequence (Q8NER1 whole entry): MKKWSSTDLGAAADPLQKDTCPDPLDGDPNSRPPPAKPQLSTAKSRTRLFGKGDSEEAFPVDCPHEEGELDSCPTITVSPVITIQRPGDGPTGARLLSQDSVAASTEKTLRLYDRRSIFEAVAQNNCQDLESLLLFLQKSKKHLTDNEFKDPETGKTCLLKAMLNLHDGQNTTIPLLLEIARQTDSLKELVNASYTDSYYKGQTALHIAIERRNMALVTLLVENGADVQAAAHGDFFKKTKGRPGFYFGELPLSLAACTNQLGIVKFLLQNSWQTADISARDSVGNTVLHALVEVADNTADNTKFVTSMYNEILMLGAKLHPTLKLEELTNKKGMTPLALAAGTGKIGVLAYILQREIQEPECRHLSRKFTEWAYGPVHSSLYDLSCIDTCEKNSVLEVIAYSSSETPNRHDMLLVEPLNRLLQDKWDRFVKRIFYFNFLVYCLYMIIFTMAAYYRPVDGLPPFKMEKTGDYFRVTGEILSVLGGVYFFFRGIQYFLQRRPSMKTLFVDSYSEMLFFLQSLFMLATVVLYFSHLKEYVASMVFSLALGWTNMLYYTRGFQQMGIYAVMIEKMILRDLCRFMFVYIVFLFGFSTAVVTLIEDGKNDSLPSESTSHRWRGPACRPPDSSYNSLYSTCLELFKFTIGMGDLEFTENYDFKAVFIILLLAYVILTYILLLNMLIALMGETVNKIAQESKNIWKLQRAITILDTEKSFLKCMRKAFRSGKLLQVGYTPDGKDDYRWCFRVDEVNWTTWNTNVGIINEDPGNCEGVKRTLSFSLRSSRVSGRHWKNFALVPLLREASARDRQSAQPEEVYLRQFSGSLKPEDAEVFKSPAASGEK
Kind of assay: Ca2+ microfluorometry in HEK cells expressing hTRPV1 (capsaicin). It is filed as cell-based. The settings on record: 1 µM capsaicin; for TRPV1 Blockade (%) 5 µM: 5 µM compound; for TRPV1 Blockade (%) 50 µM: 50 µM compound. As for the experimental part:
β-Lactam and 2-ketopiperazine derivatives were also assayed for their activity in cell expressing hTRPV1 channels. No significant antagonist activity was measured for any derivatives within both chemotypes (Supplementary Tables S1, S2, and Fig. S3), indicating their selectivity for TRPM8 channels.
Human embryonic kidney cell line (HEK) stably transfected with rTRPM8 or h-TRPV1 were used as previously described. Briefly, cells were seeded in 96-well plates at a cell density of 30,000 cells 2 days before treatment. Buffer used was HBBS (in mM): 138 NaCl, 5.33 KCl, 1.26 CaCl2, 0.5 MgCl-6H2O, 0.4 MgSO4-7H2O, 4 NaHCO3 0.44 KH2PO4, 0.3 Na2HPO4, pH 7.4. The day of treatment the medium was replaced with 100 µL of the dye loading solution Fluo-4 NW supplemented with probenecid 2.5 mM. After incubation, plates were transferred to a fluorescence plate reader (Polastar BMG). In the experimental protocol, the baseline fluorescence was recorded ([…]) for 3 cycles. After, vehicle, compound at different concentrations and the corresponding antagonist, 10 µM AMTB for TRPM8 or 10 µM Ruthenium Red for TRPV1 were added to the well. Fluorescence intensity was recorded during 7 cycles more. Finally, the agonist 100 µM menthol for TRPM8 or 1 µM capsaicin for TRPV1 was added and fluorescence intensity was recorded during 10 cycles more.
Table S1. Activity at hTRPV1 of β–lactams derived from phenylalaninol conjugates
Compd. Isomer Isomer TRPV1 Blockade (%)
Table S2. Activity at hTRPV1 of 2-ketopiperazines derived from phenylalaninol

Structures are written as SMILES. Where only a bound is given, the exact number is not on record here.

With `C[C@@H]1C(=O)N(C[C@H](Cc2ccccc2)NC(=O)OCc2ccccc2)[C@]1(Cc1ccccc1)C(=O)OCc1ccccc1` [Compound 24a, 4S-Benzyl-4-benzyloxycarbonyl-3S-methyl-1-[(2′S-benzyloxycarbonylamino-3′-phenyl)prop-1′-yl]-2-oxoazetidine], in assay [1], the TGI HT29 is greater than 17.3 µM, the GI50 was 4.16 µM and the CC50 is greater than 17.3 µM. Moreover, at hTRPV1 channels, the “TRPV1 Blockade (%) 5 µM” value is 9.7±1.1% and the “TRPV1 Blockade (%) 50 µM” value is on record as 11.8±3.2%.
On to `C[C@@H]1C(=O)N(C[C@@H](Cc2ccccc2)NC(=O)OCc2ccccc2)[C@]1(Cc1ccccc1)C(=O)OCc1ccccc1` [Compound 29a, 4S-Benzyl-4-benzyloxycarbonyl-3S-methyl-1-[(2′R-benzyloxycarbonylamino-3′-phenyl)prop-1′-yl]-2-oxoazetidine], for which, in assay [1], the TGI HT29 was greater than 17.3 µM, halving of growth (GI50) required 7.11 µM and the CC50 is greater than 17.3 µM. Also, on hTRPV1 channels, the “TRPV1 Blockade (%) 5 µM” value was 8.2±2.1% and the “TRPV1 Blockade (%) 50 µM” value was determined as 16.2±4.7%.

By GI50 is commonly meant the concentration that inhibits growth by half. Read a high GI50 as less potent growth inhibition.

The record behind these values is PMC7447632, “Highly functionalized β-lactams and 2-ketopiperazines as TRPM8 antagonists with antiallodynic activity” (Scientific Reports, 2020).
